Results taken from patent US6420409B1, “Benzimidazole derivatives” (Fujisawa Pharmaceutical Co., Ltd., priority 1997, dated 2002).

System: db/db mice
Assay: Test for Activity of Decreasing Plasma Glucose using db/db Mice
Type: in vivo
Conditions: female db/db mice, dose of 10 mg/kg, mixed with powdered chow (0.01%), 14 days, difference between db/db and +/+ mouse groups defined as 100%
Description: Test Example: Test for Activity of Decreasing Plasma Glucose using db/db Mice
1-(Isoquinolin-3-ylmethyl)-2-methyl-6-(1-pentanesulfonyl-carbamoyl)benzimidazole (13)
Five-week-old female mice [C57BL/KsJ-dbm db+/db+, C57BL/KsJ-dbm +m/+m (Jackson Laboratory) were purchased, and were kept for 2 to 3 weeks. Then, these mice were used in the test.
A test compound was mixed with a powdered chow (CE-2, made by Nippon Clea) using a mortar. The mixing ratio was 0.01%. The mixed chow was changed twice a week. The feed amount and the remaining amount were recorded, and the intake was calculated from the difference therebetween.
The female db/db mice were grouped according to the body weight, the plasma glucose and the plasma triglyceride concentrations. […] Plasma glucose, triglyceride, and insulin concentrations were measured on day 0 and day 14 as well as plasma glucose and triglyceride concentrations on day 7. The body weight was measured on day 0, day 7 and day 14. […]
The plasma glucose was measured by a glucose oxidase method (Glucose CII-Test Wako made by Wako Pure Chemical Industries, Ltd.) using from 10 to 15 μl of plasma. The plasma triglyceride concentration was measured by a GPO-p-chlorophenol method (Triglyceride G-Test Wako made by Wako Pure Chemical Industries, Ltd.) or a GPO-DAOS method (Triglyceride E-Test Wako) using from 10 to 15 μl of plasma. […]

Q: What does the source list for `CCCCCS(=O)(=O)NC(=O)c1ccc2nc(C)n(Cc3cc4ccccc4cn3)c2c1` [Compound 13, 1-(Isoquinolin-3-ylmethyl)-2-methyl-6-(1-pentane-sulfonylcarbamoyl)benzimidazole]?
A: plasma glucose decreasing activity: 44%; TG concentration-decreasing activity (plasma triglyceride): 77%
